Values quoted from earlier work, collected in patent publication US10159658B2, “Compositions comprising statins, biguanides and further agents for reducing cardiometabolic risk” (ELCELYX THERAPEUTICS, INC., priority 2011, dated 2018).

Test system: atherosclerotic plaque volume
Conditions: diabetics; PERISCOPE, Nissen et al. JAMA 2008

CCC1=C(C)CN(C(=O)NCCc2ccc(S(=O)(=O)NC(=O)N[C@H]3CC[C@H](C)CC3)cc2)C1=O [Glimepiride]
change of atherosclerotic plaque volume over time: 0.73%
